According to doi:10.1101/2025.07.02.662801v1 (biorxiv, 2025):
Where two headings read alike, the source gives them in different places.

Assays:
Assay type in all cases: biochemical
[1] = biological target: T1, PTPN2 (TC-PTP); GST-TC-PTP catalytic domain (Homo sapiens, UniProt P17706); assay: DiFMUP fluorescence phosphatase assay
T1 sequence (P17706 1-314 limits assumed): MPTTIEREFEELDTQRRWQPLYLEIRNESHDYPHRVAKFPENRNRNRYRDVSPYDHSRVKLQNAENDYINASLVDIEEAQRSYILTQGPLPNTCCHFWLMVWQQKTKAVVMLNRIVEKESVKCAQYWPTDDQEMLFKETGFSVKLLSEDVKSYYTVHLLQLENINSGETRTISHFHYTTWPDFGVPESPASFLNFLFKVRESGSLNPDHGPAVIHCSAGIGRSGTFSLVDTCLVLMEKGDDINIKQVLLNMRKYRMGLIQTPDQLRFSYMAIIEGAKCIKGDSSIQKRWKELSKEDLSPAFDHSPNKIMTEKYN

PTPN9 (MEG2) = biological target: T2, PTPN9 (MEG2) (Homo sapiens, UniProt P43378); assay: in vitro phosphatase activity curve
T2 sequence (P43378 1-593): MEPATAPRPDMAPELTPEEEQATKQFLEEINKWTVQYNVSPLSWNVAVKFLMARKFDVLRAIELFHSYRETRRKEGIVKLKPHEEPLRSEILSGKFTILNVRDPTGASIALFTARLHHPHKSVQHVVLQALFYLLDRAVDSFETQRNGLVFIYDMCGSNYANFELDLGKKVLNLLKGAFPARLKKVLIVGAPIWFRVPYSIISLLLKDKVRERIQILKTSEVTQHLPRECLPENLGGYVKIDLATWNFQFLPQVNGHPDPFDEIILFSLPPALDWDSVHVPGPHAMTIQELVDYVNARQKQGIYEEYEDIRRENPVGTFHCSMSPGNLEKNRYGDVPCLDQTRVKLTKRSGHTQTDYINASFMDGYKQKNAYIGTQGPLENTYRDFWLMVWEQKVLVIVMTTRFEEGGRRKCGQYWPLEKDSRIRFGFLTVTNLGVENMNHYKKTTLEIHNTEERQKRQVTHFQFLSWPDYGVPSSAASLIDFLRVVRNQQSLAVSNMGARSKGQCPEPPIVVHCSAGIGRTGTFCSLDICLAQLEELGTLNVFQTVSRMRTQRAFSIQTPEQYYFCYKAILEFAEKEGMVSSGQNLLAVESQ

[2] = biological target: T3, PTPN1 (PTP1B); GST-PTP1B catalytic domain (Homo sapiens, UniProt P18031); assay: DiFMUP fluorescence phosphatase assay
T3 sequence (P18031 1-321 limits assumed): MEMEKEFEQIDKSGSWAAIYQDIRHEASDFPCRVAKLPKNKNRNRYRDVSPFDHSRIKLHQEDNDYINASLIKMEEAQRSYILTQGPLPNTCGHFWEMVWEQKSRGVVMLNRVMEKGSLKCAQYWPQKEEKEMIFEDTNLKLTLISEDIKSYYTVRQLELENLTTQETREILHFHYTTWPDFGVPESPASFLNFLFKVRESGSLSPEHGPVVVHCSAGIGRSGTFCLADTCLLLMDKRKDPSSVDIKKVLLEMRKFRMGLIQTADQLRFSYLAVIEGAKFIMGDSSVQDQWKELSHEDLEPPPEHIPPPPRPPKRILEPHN

IC50 (PTPN9 (MEG2)) [nM] | IC50 [1] [nM] | IC50 [2] [nM] | Structure (SMILES) | IC50 ([1]; 50 mM HEPES pH 7.0, 3 mM DTT, 1 mg/mL BSA, 25 °C, DiFMUP at Km) [nM]
 |  |  | N#Cc1ccc2cc(Br)c(C(F)(F)P(=O)(O)O)cc2c1 [L598] | 489
7200 | 188 | 188 | N#CCc1ccc2cc(Br)c(C(F)(F)P(=O)(O)O)cc2c1 [KQ791] | 
